# Assay results as given in patent US12421243B2, “Pharmaceutically effective compounds inhibiting selectively the myosin 2 isoforms” (PRINTNET KERESKEDELMI ÉS SZOLGÁLTATÓ KFT., priority 2018, dated 2025).
# Read-outs that look alike come from different tables or passages of the source.
# Tests used:
# [1] = vital parameters of live anesthetized rats monitored during isometric force measurement; assay type: in vivo; settings: anesthetized rat; for Maximum change of vital parameters (%) blood flow: neck arteries
# Method: (§1) The maximum isometric force induced by the stimulation was determined after intraperitoneal injection of some of the compounds of the invention. During the measurement, the following parameters of live anesthetized rats were continuously monitored: • a) heart rate • b) blood flow in the neck arteries • c) respiratory frequency • d) blood oxygen saturation ratio
# [2] = target: isolated smooth muscle myosin (UniProt P10587); assay type: biochemical, chamois
# [3] = tissue concentrations after intraperitoneal injection into a live rat; assay type: in vivo; settings: ip, 6 mg i.p.
# M. quadriceps femoris = assay: isometric force measurement of live, anesthetized rat M. quadriceps femoris due to electrical stimulation; assay type: in vivo
# Method: as §1, with “saturation ratio Results from live anesthetized rats are summarized in the table below.” for “saturation ratio”
# [4] = test system: isolated rabbit skeletal muscle myosin (skeletal); assay: actomyosin steady state ATPase measurement, skeletal muscle myosin; assay type: biochemical
# Text: (§2) […]; (ii) the concentration required for semi-maximal inhibition.
# [5] = target: T1, isolated porcine cardiac ventricular myocardium (cardiac) (Sus scrofa, UniProt P79293); assay: actomyosin steady state ATPase measurement, cardiac myosin; assay type: biochemical
# T1 construct: isolated porcine cardiac ventricular myocardium (cardiac); from tissue; host or cells: porcine cardiac ventricle
# Text: as §2
# [6] = target: isolated smooth muscle myosin (UniProt P10587); assay type: biochemical, chamois; settings: concentration required for semi-maximal inhibition of ATPase
# Text: (ii) the concentration required for semi-maximal inhibition.
# [7] = target: recombinant human non-muscle myosin 2 NM2C (Homo sapiens, UniProt Q7Z406); assay: actomyosin steady state ATPase measurement, NM2C; assay type: biochemical
# Text: as §2
# S. typhimurium TA100 = assay: Ames Reverse Mutagenicity Assay (Ames MPF Test), TA100; assay type: cell-based
# Method: Mutagenicity of the compounds was determined in the Ames Reverse Mutagenicity Assay (Ames MPF Test, Xenometrix Inc.) approved by the OECD, EMA and FDA on S. typhimurium TA98 and TA100 strains without or in the presence of S9 rat liver fraction. Relative mutagenicity values were prepared using a table provided by the manufacturer. Relative mutagenicity values according to OECD, EMA, and FDA standards may not exceed 2 at any concentration because in such a case they are potentially mutagenic.
# [8] = target: recombinant human non-muscle myosin 2 NM2B (Homo sapiens, UniProt P35580); assay: actomyosin steady state ATPase measurement, NM2B; assay type: biochemical
# Text: as §2
# [9] = target: recombinant Dictyostelium miozin (Dictyostelium) (Dictyostelium discoideum, UniProt P08799); assay: actomyosin steady state ATPase measurement, Dictyostelium myosin; assay type: biochemical
# Text: as §2
# [10] = target: recombinant human non-muscle myosin 2 NM2A (Homo sapiens, UniProt P35579); assay: actomyosin steady state ATPase measurement, NM2A; assay type: biochemical
# Text: as §2
# [11] = 5 μM (10 μM if racemate), ATPase activity
# [12] = 50 μM (100 μM if racemate), ATPase activity
# [13] = maximum value of inhibition of ATPase activity
# [14] = blood, read-out: Concentration of compound 188 in tissue samples (μM) blood
# [15] = brain, read-out: Concentration of compound 188 in tissue samples (μM) brain
# [16] = skeletal muscle, read-out: Concentration of compound 188 in tissue samples (μM) muscle
# [17] = kidney, read-out: Concentration of compound 188 in tissue samples (μM) kidney
# [18] = liver, read-out: Concentration of compound 188 in tissue samples (μM) liver
# [19] = lung, read-out: Concentration of compound 188 in tissue samples (μM) lung
# [20] = myocardium, read-out: Concentration of compound 188 in tissue samples (μM) myocardium
# [21] = spleen, read-out: Concentration of compound 188 in tissue samples (μM) spleen
# [22] = urine, read-out: Concentration of compound 188 in tissue samples (μM) urine
# [23] = concentration required for semi-maximal inhibition of ATPase
# T1 sequence (P79293 whole entry): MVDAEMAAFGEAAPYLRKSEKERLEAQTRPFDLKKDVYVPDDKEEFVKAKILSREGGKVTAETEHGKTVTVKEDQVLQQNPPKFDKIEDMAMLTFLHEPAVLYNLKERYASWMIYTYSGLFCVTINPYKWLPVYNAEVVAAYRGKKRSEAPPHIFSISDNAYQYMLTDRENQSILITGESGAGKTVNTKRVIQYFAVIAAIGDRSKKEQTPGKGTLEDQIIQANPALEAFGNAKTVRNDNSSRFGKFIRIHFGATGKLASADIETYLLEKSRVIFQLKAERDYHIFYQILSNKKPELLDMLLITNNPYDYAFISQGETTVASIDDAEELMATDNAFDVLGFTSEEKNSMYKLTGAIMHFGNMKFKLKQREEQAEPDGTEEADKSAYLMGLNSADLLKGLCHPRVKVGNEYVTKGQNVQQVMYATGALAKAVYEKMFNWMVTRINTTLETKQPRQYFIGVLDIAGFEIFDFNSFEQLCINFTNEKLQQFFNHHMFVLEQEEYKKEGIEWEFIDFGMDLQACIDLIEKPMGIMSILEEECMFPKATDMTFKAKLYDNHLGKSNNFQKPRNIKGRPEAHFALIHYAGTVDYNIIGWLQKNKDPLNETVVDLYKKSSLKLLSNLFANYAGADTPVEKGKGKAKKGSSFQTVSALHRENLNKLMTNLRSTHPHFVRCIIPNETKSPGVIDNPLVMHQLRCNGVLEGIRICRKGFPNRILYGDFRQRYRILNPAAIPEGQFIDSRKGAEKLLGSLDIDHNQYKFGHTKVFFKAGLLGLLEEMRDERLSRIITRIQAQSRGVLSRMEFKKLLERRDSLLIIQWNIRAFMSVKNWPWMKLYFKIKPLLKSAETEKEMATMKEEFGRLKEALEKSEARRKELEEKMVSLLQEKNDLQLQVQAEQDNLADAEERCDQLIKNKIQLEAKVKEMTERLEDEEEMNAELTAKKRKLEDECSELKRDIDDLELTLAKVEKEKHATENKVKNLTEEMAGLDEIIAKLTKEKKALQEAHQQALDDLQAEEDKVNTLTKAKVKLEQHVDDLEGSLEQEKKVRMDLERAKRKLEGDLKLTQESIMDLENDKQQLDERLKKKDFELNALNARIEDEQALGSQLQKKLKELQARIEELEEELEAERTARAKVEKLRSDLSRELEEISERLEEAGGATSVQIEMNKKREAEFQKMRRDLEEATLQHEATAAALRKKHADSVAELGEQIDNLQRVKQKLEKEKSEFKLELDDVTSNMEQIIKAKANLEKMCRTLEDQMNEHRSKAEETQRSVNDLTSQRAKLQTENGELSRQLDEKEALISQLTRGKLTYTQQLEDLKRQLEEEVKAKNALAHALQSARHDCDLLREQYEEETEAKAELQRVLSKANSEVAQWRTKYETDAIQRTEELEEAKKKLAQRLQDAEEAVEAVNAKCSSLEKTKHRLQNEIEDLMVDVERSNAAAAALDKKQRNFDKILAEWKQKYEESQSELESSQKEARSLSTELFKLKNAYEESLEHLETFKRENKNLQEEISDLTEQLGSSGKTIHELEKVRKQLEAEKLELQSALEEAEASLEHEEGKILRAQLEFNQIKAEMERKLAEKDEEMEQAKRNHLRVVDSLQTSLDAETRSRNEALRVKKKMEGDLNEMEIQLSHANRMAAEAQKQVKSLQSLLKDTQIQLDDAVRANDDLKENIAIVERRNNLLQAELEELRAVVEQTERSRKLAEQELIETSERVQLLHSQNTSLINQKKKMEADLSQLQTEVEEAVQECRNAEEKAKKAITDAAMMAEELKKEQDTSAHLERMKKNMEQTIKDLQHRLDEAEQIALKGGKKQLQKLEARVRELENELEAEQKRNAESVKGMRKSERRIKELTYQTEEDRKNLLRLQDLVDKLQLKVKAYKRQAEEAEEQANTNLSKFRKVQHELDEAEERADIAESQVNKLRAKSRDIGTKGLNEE
# recombinant human non-muscle myosin 2 NM2A, sequence (P35579 whole entry): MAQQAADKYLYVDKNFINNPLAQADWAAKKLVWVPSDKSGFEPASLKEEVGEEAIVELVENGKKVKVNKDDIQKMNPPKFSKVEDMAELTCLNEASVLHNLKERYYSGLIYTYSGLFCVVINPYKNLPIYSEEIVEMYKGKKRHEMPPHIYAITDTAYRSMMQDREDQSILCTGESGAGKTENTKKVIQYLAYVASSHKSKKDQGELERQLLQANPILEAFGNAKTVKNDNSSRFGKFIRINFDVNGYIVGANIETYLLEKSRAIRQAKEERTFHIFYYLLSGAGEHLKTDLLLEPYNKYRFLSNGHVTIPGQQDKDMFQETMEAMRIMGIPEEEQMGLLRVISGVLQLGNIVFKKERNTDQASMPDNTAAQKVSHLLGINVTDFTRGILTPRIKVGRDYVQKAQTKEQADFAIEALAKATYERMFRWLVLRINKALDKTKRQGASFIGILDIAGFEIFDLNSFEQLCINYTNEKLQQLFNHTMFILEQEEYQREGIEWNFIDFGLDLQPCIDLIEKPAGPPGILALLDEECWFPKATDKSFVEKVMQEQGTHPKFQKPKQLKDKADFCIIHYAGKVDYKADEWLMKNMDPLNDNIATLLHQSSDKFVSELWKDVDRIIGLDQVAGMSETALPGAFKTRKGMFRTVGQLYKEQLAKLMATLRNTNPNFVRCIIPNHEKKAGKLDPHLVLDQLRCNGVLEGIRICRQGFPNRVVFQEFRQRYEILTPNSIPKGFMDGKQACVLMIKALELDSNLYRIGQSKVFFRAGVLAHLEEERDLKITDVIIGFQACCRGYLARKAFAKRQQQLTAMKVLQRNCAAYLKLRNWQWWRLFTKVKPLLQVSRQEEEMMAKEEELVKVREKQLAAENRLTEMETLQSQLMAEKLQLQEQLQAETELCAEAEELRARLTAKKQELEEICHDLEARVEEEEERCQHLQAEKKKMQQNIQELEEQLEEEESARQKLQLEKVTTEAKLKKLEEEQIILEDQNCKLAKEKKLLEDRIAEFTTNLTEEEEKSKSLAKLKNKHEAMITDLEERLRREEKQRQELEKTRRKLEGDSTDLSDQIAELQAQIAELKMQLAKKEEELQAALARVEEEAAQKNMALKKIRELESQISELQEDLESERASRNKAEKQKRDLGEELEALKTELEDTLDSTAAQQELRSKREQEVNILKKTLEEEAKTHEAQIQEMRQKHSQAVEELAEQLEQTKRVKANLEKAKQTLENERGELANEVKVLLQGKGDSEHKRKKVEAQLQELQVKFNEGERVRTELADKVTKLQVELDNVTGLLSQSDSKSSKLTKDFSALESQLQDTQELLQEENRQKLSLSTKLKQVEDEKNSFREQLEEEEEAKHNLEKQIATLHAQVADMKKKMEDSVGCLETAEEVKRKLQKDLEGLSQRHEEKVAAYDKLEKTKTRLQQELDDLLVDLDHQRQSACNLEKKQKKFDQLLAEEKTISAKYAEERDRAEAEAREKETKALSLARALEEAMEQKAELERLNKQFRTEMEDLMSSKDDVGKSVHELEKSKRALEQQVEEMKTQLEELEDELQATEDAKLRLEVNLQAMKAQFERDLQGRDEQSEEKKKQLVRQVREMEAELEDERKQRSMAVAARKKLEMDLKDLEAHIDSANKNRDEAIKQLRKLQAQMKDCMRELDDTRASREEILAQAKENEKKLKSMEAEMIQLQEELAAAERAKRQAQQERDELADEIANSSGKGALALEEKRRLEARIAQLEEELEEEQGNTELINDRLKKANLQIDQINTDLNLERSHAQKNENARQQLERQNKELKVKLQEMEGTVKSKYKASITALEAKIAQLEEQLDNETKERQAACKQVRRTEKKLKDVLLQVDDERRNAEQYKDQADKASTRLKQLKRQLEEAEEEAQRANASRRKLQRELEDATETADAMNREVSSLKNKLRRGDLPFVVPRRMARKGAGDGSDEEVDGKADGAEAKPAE
smiles,measurement,setting,value
"O=C1c2ccsc2N=C2N(c3ccc(N4CCOCC4)cc3)CCC12O (stereo not drawn) [Compound 188, 9-Hydroxy-12-[4-(morpholin-4-yl)phenyl]-4-thia-2,12-diazatricyclo[7.3.0.0^3,7]dodeca-1,3(7),5-trien-8-one]",Maximum change of vital parameters (%) heart rate,[1]; 1 mg i.p.,3%
same,Maximum change of vital parameters (%) oxygen saturation,[1]; 1 mg i.p.,−16%
same,Maximum change of vital parameters (%) respiratory frequency,[1]; 1 mg i.p.,−18%
same,Maximum change of vital parameters (%) blood flow,[1]; 1 mg i.p.,15%
same,Maximum change of vital parameters (%) heart rate,[1]; 3 mg i.p.,−3%
same,Maximum change of vital parameters (%) oxygen saturation,[1]; 3 mg i.p.,−3%
same,Maximum change of vital parameters (%) respiratory frequency,[1]; 3 mg i.p.,5%
same,Maximum change of vital parameters (%) blood flow,[1]; 3 mg i.p.,−5%
same,Maximum change of vital parameters (%) heart rate,[1]; 6 mg i.p.,−9%
same,Maximum change of vital parameters (%) oxygen saturation,[1]; 6 mg i.p.,−1%
same,Maximum change of vital parameters (%) respiratory frequency,[1]; 6 mg i.p.,−1%
same,Maximum change of vital parameters (%) blood flow,[1]; 6 mg i.p.,−1%
same,Maximum change of vital parameters (%) heart rate,[1]; 9 mg i.p.,−12%
same,Maximum change of vital parameters (%) oxygen saturation,[1]; 9 mg i.p.,−27%
same,Maximum change of vital parameters (%) respiratory frequency,[1]; 9 mg i.p.,−40%
same,Maximum change of vital parameters (%) blood flow,[1]; 9 mg i.p.,9%
same,% inhibition at 5 μM (or 10 μM if racemate) Smooth,[2]; [11],0%
same,% inhibition at 50 μM (or 100 μM if racemate) Smooth,[2]; [12],11%
same,% inhibition. complete Smooth,[2]; [13],100%
same,concentration at 5 min,[3]; [14],12 µM
same,concentration at 15 min,[3]; [14],16 µM
same,concentration at 30 min,[3]; [14],12 µM
same,concentration at 45 min,[3]; [14],10 µM
same,concentration at 60 min,[3]; [14],8 µM
same,concentration at 5 min,[3]; [15],25 µM
same,concentration at 15 min,[3]; [15],45 µM
same,concentration at 30 min,[3]; [15],36 µM
same,concentration at 45 min,[3]; [15],17 µM
same,concentration at 60 min,[3]; [15],5 µM
same,concentration at 5 min,[3]; [16],22 µM
same,concentration at 15 min,[3]; [16],48 µM
same,concentration at 30 min,[3]; [16],69 µM
same,concentration at 45 min,[3]; [16],78 µM
same,concentration at 60 min,[3]; [16],74 µM
same,concentration at 5 min,[3]; [17],29 µM
same,concentration at 15 min,[3]; [17],56 µM
same,concentration at 30 min,[3]; [17],20 µM
same,concentration at 45 min,[3]; [17],12 µM
same,concentration at 60 min,[3]; [17],3 µM
same,concentration at 5 min,[3]; [18],30 µM
same,concentration at 15 min,[3]; [18],18 µM
same,concentration at 30 min,[3]; [18],12 µM
same,concentration at 45 min,[3]; [18],9 µM
same,concentration at 60 min,[3]; [18],3 µM
same,concentration at 5 min,[3]; [19],25 µM
same,concentration at 15 min,[3]; [19],36 µM
same,concentration at 30 min,[3]; [19],22 µM
same,concentration at 45 min,[3]; [19],9 µM
same,concentration at 60 min,[3]; [19],4 µM
same,concentration at 5 min,[3]; [20],36 µM
same,concentration at 15 min,[3]; [20],48 µM
same,concentration at 30 min,[3]; [20],26 µM
same,concentration at 45 min,[3]; [20],18 µM
same,concentration at 60 min,[3]; [20],9 µM
same,concentration at 5 min,[3]; [21],37 µM
same,concentration at 15 min,[3]; [21],28 µM
same,concentration at 30 min,[3]; [21],11 µM
same,concentration at 45 min,[3]; [21],5 µM
same,concentration at 60 min,[3]; [21],3 µM
same,concentration at 5 min,[3]; [22],58 µM
same,concentration at 15 min,[3]; [22],77 µM
same,concentration at 30 min,[3]; [22],72 µM
same,concentration at 45 min,[3]; [22],63 µM
same,concentration at 60 min,[3]; [22],21 µM
same,Maximum change in isometric force at rear leg (%),M. quadriceps femoris; 1 mg i.p.,23%
same,Maximum change in isometric force at rear leg (%),M. quadriceps femoris; 3 mg i.p.,26%
same,Maximum change in isometric force at rear leg (%),M. quadriceps femoris; 6 mg i.p.,28%
same,% inhibition at 5 μM (or 10 μM if racemate) Skeletal,[4]; [11],50%
same,% inhibition at 50 μM (or 100 μM if racemate) Skeletal,[4]; [12],95%
same,IC50,[4]; [23],5 µM
same,% inhibition. complete Skeletal,[4]; [13],100%
same,IC50,[5]; [23],> 100 µM
same,% inhibition. complete cardiac,[5]; [13],32%
same,inhibition at 5 µM,"[5]; read-out: % inhibition at 5 μM (or 10 μM if racemate) cardiac, 5 μM (10 μM if racemate), ATPase activity",0%
same,inhibition at 50 µM,"[5]; read-out: % inhibition at 50 μM (or 100 μM if racemate) cardiac, 50 μM (100 μM if racemate), ATPase activity",8%
same,IC50,[6],> 100 µM
same,IC50,[7]; [23],4 µM
same,Inhibition (%) NM2C,"[7]; maximum inhibition, compounds in IC50 range 1-5 μM",15%
same,% inhibition. complete NM2C,[7]; [13],15%
same,inhibition at 5 µM,"[7]; read-out: % inhibition at 5 μM (or 10 μM if racemate) NM2C, 5 μM (10 μM if racemate), ATPase activity",8%
same,inhibition at 50 µM,"[7]; read-out: % inhibition at 50 μM (or 100 μM if racemate) NM2C, 50 μM (100 μM if racemate), ATPase activity",14%
same,Relative mutagenicity (as compared to the control value),"S. typhimurium TA100; TA100, +S9, 31.25 μM",0.4
same,Relative mutagenicity (as compared to the control value),"S. typhimurium TA100; TA100, +S9, 62.5 μM",0.3
same,Relative mutagenicity (as compared to the control value),"S. typhimurium TA100; TA100, +S9, 125 μM",0.6
same,Relative mutagenicity (as compared to the control value),"S. typhimurium TA100; TA100, +S9, 250 μM",0.6
same,Relative mutagenicity (as compared to the control value),"S. typhimurium TA100; TA100, +S9, 500 μM",0.6
same,Relative mutagenicity (as compared to the control value),"S. typhimurium TA100; TA100, +S9, 1000 μM",0.5
same,Relative mutagenicity (as compared to the control value),"S. typhimurium TA100; TA100, −S9, 31.25 μM",0.8
same,Relative mutagenicity (as compared to the control value),"S. typhimurium TA100; TA100, −S9, 62.5 μM",0.5
same,Relative mutagenicity (as compared to the control value),"S. typhimurium TA100; TA100, −S9, 125 μM",0.6
same,Relative mutagenicity (as compared to the control value),"S. typhimurium TA100; TA100, −S9, 250 μM",0.5
same,Relative mutagenicity (as compared to the control value),"S. typhimurium TA100; TA100, −S9, 500 μM",0.6
same,Relative mutagenicity (as compared to the control value),"S. typhimurium TA100; TA100, −S9, 1000 μM",0.7
same,IC50,[8]; [23],5 µM
same,% inhibition. complete NM2B,[8]; [13],19%
same,inhibition at 5 µM,"[8]; read-out: % inhibition at 5 μM (or 10 μM if racemate) NM2B, 5 μM (10 μM if racemate), ATPase activity",8%
same,inhibition at 50 µM,"[8]; read-out: % inhibition at 50 μM (or 100 μM if racemate) NM2B, 50 μM (100 μM if racemate), ATPase activity",18%
same,IC50,"[9]; concentration required for semi-maximal inhibition of ATPase, read-out: IC50 (μM) Dicty",13 µM
same,% inhibition. complete Dicty,[9]; [13],19%
same,inhibition at 5 µM,[9]; read-out: % inhibition at 5 μM (or 10 μM if racemate) Dicty,5%
same,inhibition at 50 µM,[9]; read-out: % inhibition at 50 μM (or 100 μM if racemate) Dicty,15%
same,IC50,[10]; [23],82 µM
same,% inhibition. complete NM2A,[10]; [13],31%
same,inhibition at 5 µM,"[10]; read-out: % inhibition at 5 μM (or 10 μM if racemate) NM2A, 5 μM (10 μM if racemate), ATPase activity",0%
same,inhibition at 50 µM,"[10]; read-out: % inhibition at 50 μM (or 100 μM if racemate) NM2A, 50 μM (100 μM if racemate), ATPase activity",9%
